Assays:
[1] = target: T1, Adrenergic receptor alpha-1 (Rattus norvegicus, UniProt P15823+P23944+P43140); experiment: Displacement of [3H]prazosin at alpha-1 adrenergic receptor in rat brain cortices (n=1); format: tissue-based
T1 sequence (P15823 whole entry): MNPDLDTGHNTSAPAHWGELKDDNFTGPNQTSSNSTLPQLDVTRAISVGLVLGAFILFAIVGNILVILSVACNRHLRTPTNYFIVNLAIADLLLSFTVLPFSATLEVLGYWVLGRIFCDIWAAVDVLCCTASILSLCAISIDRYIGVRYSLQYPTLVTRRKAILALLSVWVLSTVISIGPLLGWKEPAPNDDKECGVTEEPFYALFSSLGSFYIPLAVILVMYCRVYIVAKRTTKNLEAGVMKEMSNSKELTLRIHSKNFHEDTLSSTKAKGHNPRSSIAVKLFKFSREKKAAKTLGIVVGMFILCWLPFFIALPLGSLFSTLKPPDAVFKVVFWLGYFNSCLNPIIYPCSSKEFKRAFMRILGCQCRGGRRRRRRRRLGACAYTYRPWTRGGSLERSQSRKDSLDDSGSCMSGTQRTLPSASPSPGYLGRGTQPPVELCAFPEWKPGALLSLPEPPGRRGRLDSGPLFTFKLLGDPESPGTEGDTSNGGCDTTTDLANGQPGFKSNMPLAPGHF
T1 sequence (P23944 whole entry): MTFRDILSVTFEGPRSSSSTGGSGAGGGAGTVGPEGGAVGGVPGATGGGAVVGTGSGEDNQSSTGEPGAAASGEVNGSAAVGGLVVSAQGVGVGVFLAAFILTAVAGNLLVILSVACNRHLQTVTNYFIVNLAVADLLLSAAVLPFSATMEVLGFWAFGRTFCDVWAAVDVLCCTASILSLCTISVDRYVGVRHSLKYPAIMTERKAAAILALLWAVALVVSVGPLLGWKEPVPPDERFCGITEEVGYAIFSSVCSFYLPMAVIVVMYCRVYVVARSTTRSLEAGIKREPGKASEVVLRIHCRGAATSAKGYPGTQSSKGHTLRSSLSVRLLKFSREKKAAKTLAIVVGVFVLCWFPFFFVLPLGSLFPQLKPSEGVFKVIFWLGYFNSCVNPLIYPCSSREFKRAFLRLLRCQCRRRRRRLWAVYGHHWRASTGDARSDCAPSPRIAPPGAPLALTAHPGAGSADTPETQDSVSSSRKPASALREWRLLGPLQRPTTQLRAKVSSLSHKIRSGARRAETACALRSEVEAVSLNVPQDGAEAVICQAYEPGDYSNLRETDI
T1 sequence (P43140 whole entry): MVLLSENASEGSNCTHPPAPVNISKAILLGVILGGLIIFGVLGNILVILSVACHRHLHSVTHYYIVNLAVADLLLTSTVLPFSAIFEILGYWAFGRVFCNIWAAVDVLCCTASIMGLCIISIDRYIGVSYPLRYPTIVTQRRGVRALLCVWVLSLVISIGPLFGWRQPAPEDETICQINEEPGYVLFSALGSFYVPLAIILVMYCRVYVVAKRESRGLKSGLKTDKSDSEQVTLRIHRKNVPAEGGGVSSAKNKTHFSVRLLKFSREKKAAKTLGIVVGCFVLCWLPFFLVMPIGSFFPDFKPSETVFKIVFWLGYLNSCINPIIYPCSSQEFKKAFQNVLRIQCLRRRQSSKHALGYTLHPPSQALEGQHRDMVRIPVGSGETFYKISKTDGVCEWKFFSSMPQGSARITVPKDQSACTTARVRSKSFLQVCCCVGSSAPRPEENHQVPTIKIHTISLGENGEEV

[2] = target: D(2) dopamine receptor (Rattus norvegicus, UniProt P61169); experiment: Displacement of [3H]raclopride at Dopamine receptor D2 in brain striata (n=1); format: tissue-based
[3] = target: Glutamate receptor ionotropic, NMDA 1 (Homo sapiens, UniProt Q05586); experiment: Concentration required for 50% Inhibition of responses at cloned NR1A/2AB NMDA expressed in Xenopus oocytes; format: cell-based, Oocyte
[4] = test system: Rattus norvegicus; experiment: Lowest oral dose that shows significant potentiation of total contraversive rotations over 3 hr caused by L-DOPA (10mg/kg, sc) in 6-hydroxydopamine-lesioned rats (n=8)administered perorally; format: functional; details: read-out: MED
[5] = target: Glutamate receptor ionotropic, NMDA 1 (Homo sapiens, UniProt Q05586+Q12879); experiment: Concentration required for 50% Inhibition of responses at cloned NR1A/2A NMDA expressed in Xenopus oocytes; format: cell-based, Oocyte
[6] = target: Glutamate receptor ionotropic, NMDA 1 (Homo sapiens, UniProt Q05586+Q14957); experiment: Concentration required for 50% Inhibition of responses at cloned NR1A/2C NMDA expressed in Xenopus oocytes; format: cell-based, Oocyte
[7] = target: T1, Adrenergic receptor alpha-1; experiment: Displacement of [3H]-prazosin at alpha-1 adrenergic receptor inat brain cortices (n=1)
[8] = test system: Rattus norvegicus; experiment: Lowest oral dose that shows significant potentiation of total contraversive rotations over 3 hr caused by L-DOPA (10mg/kg, sc) in 6-hydroxydopamine-lesioned rats (n=8) administered perorally; format: functional; details: read-out: MED
[9] = target: Glutamate NMDA receptor; Grin1/Grin2a (Rattus norvegicus, UniProt P35439+Q00959); experiment: Concentration required for 50% Inhibition of responses at cloned NR1A/2A N-methyl-D-aspartate (NMDA) expressed in Xenopus oocytes; format: cell-based, Oocyte
[10] = target: Glutamate receptor ionotropic, NMDA 2C (Rattus norvegicus, UniProt P35439+Q00961); experiment: Concentration required for 50% Inhibition of responses at cloned NR1A/2C N-methyl-D-aspartate (NMDA) expressed in Xenopus oocytes; format: cell-based, Oocyte
[11] = test system: Rattus norvegicus; experiment: Lowest oral dose that shows significant potentiation of total contraversive rotations over 3 hr caused by L-DOPA (10mg/kg, sc) in 6-hydroxydopamine-lesioned rats (n=8);administered perorally; format: functional; details: read-out: MED

Sequence of Glutamate receptor ionotropic, NMDA 2C (Q00961 whole entry, one chain of several): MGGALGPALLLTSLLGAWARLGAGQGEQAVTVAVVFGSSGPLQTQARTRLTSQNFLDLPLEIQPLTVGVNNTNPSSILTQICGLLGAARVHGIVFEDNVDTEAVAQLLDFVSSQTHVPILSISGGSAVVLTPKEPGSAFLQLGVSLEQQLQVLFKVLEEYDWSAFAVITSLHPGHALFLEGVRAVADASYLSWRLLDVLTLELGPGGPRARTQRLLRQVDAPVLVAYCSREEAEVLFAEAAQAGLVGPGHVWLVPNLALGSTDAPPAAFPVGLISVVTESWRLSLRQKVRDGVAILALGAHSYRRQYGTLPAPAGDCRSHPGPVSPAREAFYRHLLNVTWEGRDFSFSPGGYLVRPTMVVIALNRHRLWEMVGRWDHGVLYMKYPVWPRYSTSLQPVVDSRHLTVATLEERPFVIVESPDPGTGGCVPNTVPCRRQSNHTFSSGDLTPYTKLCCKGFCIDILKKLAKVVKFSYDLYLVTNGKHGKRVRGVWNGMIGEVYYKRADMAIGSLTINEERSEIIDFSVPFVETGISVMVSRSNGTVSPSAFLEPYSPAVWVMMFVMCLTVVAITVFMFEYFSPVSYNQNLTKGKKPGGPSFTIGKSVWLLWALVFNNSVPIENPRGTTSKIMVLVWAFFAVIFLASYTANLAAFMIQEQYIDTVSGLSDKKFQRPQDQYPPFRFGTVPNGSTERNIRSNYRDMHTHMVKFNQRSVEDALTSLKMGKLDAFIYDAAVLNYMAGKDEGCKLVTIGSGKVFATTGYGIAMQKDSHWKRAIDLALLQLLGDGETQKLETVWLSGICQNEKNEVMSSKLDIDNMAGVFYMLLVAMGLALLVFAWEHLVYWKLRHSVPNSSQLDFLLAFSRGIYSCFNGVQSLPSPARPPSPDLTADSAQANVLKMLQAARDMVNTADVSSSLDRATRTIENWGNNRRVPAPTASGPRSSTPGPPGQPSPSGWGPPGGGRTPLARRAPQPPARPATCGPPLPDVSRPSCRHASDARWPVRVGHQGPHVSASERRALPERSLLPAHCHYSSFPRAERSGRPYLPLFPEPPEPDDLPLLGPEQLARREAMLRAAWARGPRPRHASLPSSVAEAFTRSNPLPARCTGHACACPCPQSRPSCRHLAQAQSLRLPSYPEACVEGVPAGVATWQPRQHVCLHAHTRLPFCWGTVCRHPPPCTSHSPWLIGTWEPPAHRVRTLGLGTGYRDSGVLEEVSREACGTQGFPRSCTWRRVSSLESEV
Sequence of D(2) dopamine receptor (P61169 whole entry): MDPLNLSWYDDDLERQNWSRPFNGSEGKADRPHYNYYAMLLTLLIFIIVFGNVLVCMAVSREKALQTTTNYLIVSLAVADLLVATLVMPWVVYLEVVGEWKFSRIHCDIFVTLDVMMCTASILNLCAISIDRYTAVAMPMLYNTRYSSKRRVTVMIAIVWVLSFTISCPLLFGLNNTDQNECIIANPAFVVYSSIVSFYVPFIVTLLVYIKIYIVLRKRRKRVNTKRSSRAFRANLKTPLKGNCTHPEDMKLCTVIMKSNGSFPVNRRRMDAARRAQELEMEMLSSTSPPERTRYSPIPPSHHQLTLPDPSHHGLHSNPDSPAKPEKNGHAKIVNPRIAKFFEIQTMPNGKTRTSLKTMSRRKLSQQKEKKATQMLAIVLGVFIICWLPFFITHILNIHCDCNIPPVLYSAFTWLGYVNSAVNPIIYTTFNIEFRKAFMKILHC
Sequence of Glutamate NMDA receptor; Grin1/Grin2a (Q00959 whole entry, looked up, other chains not shown): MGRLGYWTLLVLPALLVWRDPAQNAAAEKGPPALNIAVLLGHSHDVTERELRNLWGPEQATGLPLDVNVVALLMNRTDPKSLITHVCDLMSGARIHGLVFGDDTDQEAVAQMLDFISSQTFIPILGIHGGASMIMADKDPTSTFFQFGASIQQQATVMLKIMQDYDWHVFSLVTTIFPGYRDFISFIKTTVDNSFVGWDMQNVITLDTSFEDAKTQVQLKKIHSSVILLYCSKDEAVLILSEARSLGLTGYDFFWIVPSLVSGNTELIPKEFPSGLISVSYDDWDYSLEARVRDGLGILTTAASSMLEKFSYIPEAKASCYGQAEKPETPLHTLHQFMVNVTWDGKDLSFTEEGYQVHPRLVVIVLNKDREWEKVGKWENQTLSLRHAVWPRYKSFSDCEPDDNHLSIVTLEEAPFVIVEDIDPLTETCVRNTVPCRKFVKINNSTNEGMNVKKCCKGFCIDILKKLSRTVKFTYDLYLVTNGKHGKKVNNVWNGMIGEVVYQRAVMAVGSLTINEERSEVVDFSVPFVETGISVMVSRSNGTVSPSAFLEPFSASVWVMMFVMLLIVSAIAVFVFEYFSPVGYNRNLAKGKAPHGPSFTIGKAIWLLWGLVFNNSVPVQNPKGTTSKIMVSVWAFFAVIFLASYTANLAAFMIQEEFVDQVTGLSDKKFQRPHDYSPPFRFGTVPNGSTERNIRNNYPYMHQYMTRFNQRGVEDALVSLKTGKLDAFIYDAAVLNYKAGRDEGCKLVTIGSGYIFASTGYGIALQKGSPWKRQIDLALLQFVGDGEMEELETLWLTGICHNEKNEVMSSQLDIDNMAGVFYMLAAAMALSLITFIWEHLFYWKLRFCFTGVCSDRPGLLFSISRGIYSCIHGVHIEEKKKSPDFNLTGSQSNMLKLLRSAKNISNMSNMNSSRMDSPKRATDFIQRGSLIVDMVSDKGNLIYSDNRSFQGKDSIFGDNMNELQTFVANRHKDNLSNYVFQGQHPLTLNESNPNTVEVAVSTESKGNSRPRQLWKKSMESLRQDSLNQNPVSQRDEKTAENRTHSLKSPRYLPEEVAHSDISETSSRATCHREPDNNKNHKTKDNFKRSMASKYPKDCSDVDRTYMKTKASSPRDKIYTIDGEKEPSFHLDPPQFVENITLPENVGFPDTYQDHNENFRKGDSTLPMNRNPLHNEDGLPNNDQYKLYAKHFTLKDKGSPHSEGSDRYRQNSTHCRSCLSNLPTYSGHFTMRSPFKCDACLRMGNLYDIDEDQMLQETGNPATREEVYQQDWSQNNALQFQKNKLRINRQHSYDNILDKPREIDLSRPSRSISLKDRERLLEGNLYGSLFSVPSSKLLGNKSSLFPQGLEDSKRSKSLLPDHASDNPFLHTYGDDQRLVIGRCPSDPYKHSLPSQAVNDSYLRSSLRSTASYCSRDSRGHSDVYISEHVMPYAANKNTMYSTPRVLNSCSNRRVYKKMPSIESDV

IC50 [2] [µM]	IC50 [3] [µM]	IC50 [5] [µM]	IC50 [6] [µM]	Structure (SMILES)	also measured
14	0.017	–	–	Cc1ccc(CC2CCN(CC#Cc3ccc4[nH]c(O)nc4c3)CC2)cc1	IC50 [1]: 3.1 µM; minimal effective dose [4]: 30 mg/kg
9.9	0.026	> 100	> 100	COc1ccc(CC2CCN(CC#Cc3ccc4[nH]c(O)nc4c3)CC2)cc1	IC50 [1]: 17 µM; minimal effective dose [4]: > 30 mg/kg
–	0.089	39	> 100	O=c1[nH]c2ccc(C#CCCN3CCC(Cc4ccccc4)CC3)cc2[nH]1	–
–	15	> 100	> 100	C(#Cc1ccc2[nH]ccc2c1)CN1CCC(Cc2ccccc2)CC1	–
41	–	–	–	Oc1nc2cc(C#CCN3CCC(O)(Cc4ccc(F)cc4)CC3)ccc2[nH]1	IC50 [7]: 18 µM; minimal effective dose [8]: > 30 mg/kg
–	0.016	25	> 100	S=c1[nH]c2ccc(C#CCN3CCC(Cc4ccccc4)CC3)cc2[nH]1	–
3.9	0.0061	> 100	> 100	Oc1nc2cc(C#CCN3CCC(Cc4cccc(F)c4)CC3)ccc2[nH]1	IC50 [1]: 0.7 µM; minimal effective dose [4]: > 30 mg/kg
–	0.22	> 100	> 100	C(#Cc1ccc2nn[nH]c2c1)CCN1CCC(Cc2ccccc2)CC1	–
–	–	–	–	C(#Cc1ccc2cc[nH]c2c1)CCN1CCC(Cc2ccccc2)CC1	IC50 [9]: > 100 µM; IC50 [10]: > 100 µM
–	–	–	> 100	Cn1c(=O)[nH]c2ccc(C#CCN3CCC(Cc4ccccc4)CC3)cc21	–
–	0.42	> 100	> 100	C(#Cc1ccc2[nH]nnc2c1)CN1CCC(Cc2ccccc2)CC1	–
–	0.12	39	> 100	O=c1[nH]c2ccc(C#CCCN3CCC(Cc4ccccc4)CC3)cc2o1	–
–	0.32	52	> 100	O=C1Cc2cc(C#CCCN3CCC(Cc4ccccc4)CC3)ccc2N1	–
–	0.049	–	–	Oc1nc2ccc(C#CCN3CCC(Cc4ccccc4)CC3)cc2o1	–
–	–	–	–	Oc1ccc(C#CCN2CCC(Cc3ccccc3)CC2)cc1	IC50 [9]: > 100 µM; IC50 [10]: > 100 µM
–	0.38	> 100	> 100	C(#Cc1ccc2[nH]ncc2c1)CN1CCC(Cc2ccccc2)CC1	–
2.6	–	–	–	Oc1nc2cc(C#CCN3CCC(Cc4ccccc4)CC3)ccc2[nH]1	IC50 [1]: 0.5 µM; minimal effective dose [4]: 10 mg/kg
–	62	89	> 100	Cn1c(=O)[nH]c2cc(C#CCN3CCC(Cc4ccccc4)CC3)ccc21	–
3.7	0.019	–	–	Oc1nc2cc(C#CCN3CCC(Cc4ccc(Cl)cc4)CC3)ccc2[nH]1	IC50 [1]: 5.8 µM; minimal effective dose [11]: 30 mg/kg
–	0.11	> 100	> 100	O=C1Cc2cc(C#CCN3CCC(Cc4ccccc4)CC3)ccc2N1	–
1.7	0.0082	38	> 100	Oc1nc2cc(C#CCN3CCC(Cc4ccc(F)cc4)CC3)ccc2[nH]1	IC50 [1]: 1.2 µM; minimal effective dose [4]: 30 mg/kg
–	1.8	57	–	O=C1Nc2ccc(C#CCCN3CCC(Cc4ccccc4)CC3)cc2C1=O	IC50 [10]: > 100 µM
86	0.019	> 100	> 100	Oc1nc2cc(C#CCN3CCC(O)(Cc4ccccc4)CC3)ccc2[nH]1	IC50 [1]: 55 µM
–	0.25	95	> 100	C(#Cc1ccc2[nH]ncc2c1)CCN1CCC(Cc2ccccc2)CC1	–
–	0.18	75	> 100	S=c1[nH]c2ccc(C#CCCN3CCC(Cc4ccccc4)CC3)cc2[nH]1	–

Structure (SMILES)	IC50 [2] [µM]	IC50 [3] [µM]	IC50 [5] [µM]	IC50 [6] [µM]	also measured
O=C1COc2cc(C#CCCN3CCC(Cc4ccccc4)CC3)ccc2N1	–	1.1	> 100	> 100	–

— ChEMBL document CHEMBL1133639, “Subtype-selective N-methyl-D-aspartate receptor antagonists: synthesis and biological evaluation of 1-(heteroarylalkynyl)-4-benzylpiperidines” (J Med Chem, 2000)
